Experimental findings from patent US9090599B2, “Heteroarylmethyl amides” (Hoffman-La Roche Inc., priority 2010, dated 2015) are described below.

One assay has as its target T1, human CB1 receptor (Homo sapiens, UniProt P21554).
T1 construct: expressed in transfected cells; host or cells: human embryonic kidney (HEK) cells, Semliki Forest Virus system, membrane preparations
Kind of assay: CB1 receptor affinity, [3H]-CP-55,940 displacement, HEK cell membranes. In kind it is binding. As to conditions: read-out: CB1 receptor affinity [% inhibition @ 10 μM]. As to the method: (§1) The affinity of the compounds of the invention for cannabinoid receptors was determined using membrane preparations of human embryonic kidney (HEK) cells in which the human CB1 receptor is transiently transfected using a Semliki Forest Virus system in conjunction with [3H]-CP-55,940 as radioligand. After incubation of freshly prepared cell membrane preparation with the [^3H]-ligand, with or without addition of compounds of the invention, separation of bound and free ligand was performed by filtration over glass fiber filters. Radioactivity on the filter was measured by scintillation counting.
(§2) The ability of the compounds to displace the radioligand [^3H]-CP-55,940 was measured at a concentration of 10 μM and values provided as [% inhibition @ 10 μM] both for the CB 1 and CB2 receptor assay, The lower % inhibition is, the lower the likelihood of side effects based on CB1 or CB2 receptor inhibition is.

For a further assay, the target named is T2, human CB2 receptor (Homo sapiens, UniProt P34972).
T2 construct: expressed in transfected cells; host or cells: human embryonic kidney (HEK) cells, Semliki Forest Virus system, membrane preparations
Kind of assay: CB2 receptor affinity, [3H]-CP-55,940 displacement, HEK cell membranes. In kind it is binding. Particulars: 10 μM compound, radioligand [3H]-CP-55,940. As to the method: as §1, with “cannabinoid CB2” for “cannabinoid”, “CB2” for “CB1”, “[^3H]-CP-55,940” for “[3H]-CP-55,940”
as §2

Where [1] appears, read: 10 μM compound, radioligand [3H]-CP-55,940.

Where two headings read alike, the source gives them in different places.

T1 sequence (P21554 whole entry): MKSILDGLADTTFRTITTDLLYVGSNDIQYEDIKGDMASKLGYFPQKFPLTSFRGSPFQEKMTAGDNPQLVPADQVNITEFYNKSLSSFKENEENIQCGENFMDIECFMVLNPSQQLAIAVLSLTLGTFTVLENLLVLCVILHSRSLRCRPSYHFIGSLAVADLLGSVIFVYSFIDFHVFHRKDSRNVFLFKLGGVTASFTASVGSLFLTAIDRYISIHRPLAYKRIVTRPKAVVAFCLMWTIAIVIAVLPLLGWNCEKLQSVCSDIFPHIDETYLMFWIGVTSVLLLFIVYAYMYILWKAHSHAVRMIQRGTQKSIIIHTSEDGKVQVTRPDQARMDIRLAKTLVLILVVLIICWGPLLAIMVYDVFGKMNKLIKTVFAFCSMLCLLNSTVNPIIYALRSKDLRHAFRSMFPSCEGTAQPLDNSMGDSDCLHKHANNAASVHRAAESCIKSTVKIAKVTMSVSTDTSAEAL
T2 sequence (P34972 whole entry): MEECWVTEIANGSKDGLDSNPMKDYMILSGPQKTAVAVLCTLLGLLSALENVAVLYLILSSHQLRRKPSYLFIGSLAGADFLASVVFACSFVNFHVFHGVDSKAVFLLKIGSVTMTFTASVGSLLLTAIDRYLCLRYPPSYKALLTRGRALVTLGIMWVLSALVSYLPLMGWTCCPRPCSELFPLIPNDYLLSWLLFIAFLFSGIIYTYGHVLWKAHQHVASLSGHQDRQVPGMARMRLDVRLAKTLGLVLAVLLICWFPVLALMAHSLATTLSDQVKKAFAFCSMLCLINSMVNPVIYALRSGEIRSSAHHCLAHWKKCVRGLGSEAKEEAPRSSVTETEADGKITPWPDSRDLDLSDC

The inhibition is the drop in the measured response relative to a control, in per cent. With `CC(C)c1cc(CNC(=O)c2cc(-c3ccc(Cl)cc3)c(OCC(F)(F)F)nn2)on1` [Example 43, 5-(4-chloro-phenyl)-6-(2,2,2-trifluoro-ethoxy)-pyridazine-3-carboxylic acid (3-isopropyl-isoxazol-5-ylmethyl)-amide], the inhibition at 10 µM was 37% at human CB1 receptor (setting [1]) and 14% at human CB2 receptor.
`O=C(NCc1cc(C(F)(F)F)on1)c1cc(-c2ccc(Cl)cc2)c(OCC(F)(F)F)cn1` [Example 45, 4-(4-chlorophenyl)-5-(2,2,2-trifluoroethoxy)-N-((5-(trifluoromethyl)isoxazol-3-yl)methyl)picolinamide]: the figures for the inhibition at 10 µM on human CB1 receptor and at human CB2 receptor were 37% and -2%, respectively.
As to `O=C(NCc1cc(C2CC2)no1)c1ccc(OCC(F)(F)F)c(-c2ccc(Cl)cc2)n1` [Example 47, 6-(4-chloro-phenyl)-5-(2,2,2-trifluoro-ethoxy)-pyridine-2-carboxylic acid (3-cyclopropyl-isoxazol-5-ylmethyl)-amide], the inhibition at 10 µM at human CB1 receptor (setting [1]) amounted to 46%; on human CB2 receptor it was 16%.
As for `O=C(NCc1cc(C2CC2)no1)c1cc(-c2ccc(Cl)cc2)c(OCC(F)(F)F)nn1` [Example 49, 5-(4-Chloro-phenyl)-6-(2,2,2-trifluoro-ethoxy)-pyridazine-3-carboxylic acid (3-cyclopropyl-isoxazol-5-ylmethyl)-amide], the inhibition at 10 µM at human CB1 receptor (setting [1]) amounted to 36%; on human CB2 receptor, 13%.
As to `O=C(NCc1cc(C(F)(F)F)on1)c1cnc(OCC(F)(F)F)c(-c2ccc(Cl)cc2)c1` [Example 50, 5-(4-chloro-phenyl)-6-(2,2,2-trifluoro-ethoxy)-N-(5-trifluoromethyl-isoxazol-3-ylmethyl)-nicotinamide], the inhibition at 10 µM on human CB1 receptor (setting [1]) is 38%; at human CB2 receptor, -5%.
Regarding `CC(C)c1nc(CNC(=O)c2cnc(OCC3CC3)c(-c3ccc(Cl)cc3)c2)no1` [Example 51], the inhibition at 10 µM was determined as 47% on human CB1 receptor (setting [1]) and 2% at human CB2 receptor.
In the case of `CC(C)c1nc(CNC(=O)c2ccc(OCC3CC3)c(-c3ccc(Cl)cc3)n2)cs1` [Example 52, 6-(4-chloro-phenyl)-5-cyclopropylmethoxy-pyridine-2-carboxylic acid (2-isopropyl-thiazol-4-ylmethyl)-amide], the inhibition at 10 µM was 38% on human CB1 receptor (setting [1]) and 43% at human CB2 receptor.
The matching figures for `CC(C)c1cc(CNC(=O)c2ccc(OCC(F)(F)F)c(-c3ccc(Cl)cc3)n2)no1` [Example 53, 6-(4-chloro-phenyl)-5-(2,2,2-trifluoro-ethoxy)-pyridine-2-carboxylic acid (5-isopropyl-isoxazol-3-ylmethyl)-amide]: 43% and 23%.
Take `CC(C)(C)c1nc(CNC(=O)c2cc(-c3ccc(Cl)cc3)c(OCC3CC3)cn2)cs1` [Example 54, N-((2-tert-butylthiazol-4-yl)methyl)-4-(4-chlorophenyl)-5-(cyclopropylmethoxy)picolinamide]: the inhibition at 10 µM at human CB1 receptor (setting [1]) was 20%; on human CB2 receptor, 12%.
Consider `CC(C)c1cc(CNC(=O)c2ccc(OCC3CC3)c(-c3ccc(Cl)cc3)n2)no1` [Example 55, 6-(4-chloro-phenyl)-5-cyclopropylmethoxy-pyridine-2-carboxylic acid (5-isopropyl-isoxazol-3-ylmethyl)-amide], for which the inhibition at 10 µM was 44% at human CB1 receptor (setting [1]) and 33% at human CB2 receptor.
`O=C(NCc1coc(C2CC2)n1)c1ccc(OCC2CC2)c(-c2ccc(Cl)cc2)n1` [Example 56, 6-(4-chloro-phenyl)-5-cyclopropylmethoxy-pyridine-2-carboxylic acid (2-cyclopropyl-oxazol-4-ylmethyl)-amide]: the inhibition at 10 µM at human CB1 receptor (setting [1]) came out at 38%; on human CB2 receptor, 32%.
On to `O=C(NCc1csc(C2CC2)n1)c1ccc(OCC2CC2)c(-c2ccc(Cl)cc2)n1` [Example 57, 6-(4-chloro-phenyl)-5-cyclopropylmethoxy-pyridine-2-carboxylic acid (2-cyclopropyl-thiazol-4-ylmethyl)-amide], for which the inhibition at 10 µM on human CB1 receptor amounted to 31%; on human CB2 receptor, 36%.
On to `O=C(NCc1cc(C(F)(F)F)on1)c1ccc(OCC2CC2)c(-c2ccc(Cl)cc2)n1` [Example 58, 6-(4-chloro-phenyl)-5-cyclopropylmethoxy-pyridine-2-carboxylic acid (5-trifluoromethyl-isoxazol-3-ylmethyl)-amide], for which the inhibition at 10 µM at human CB1 receptor (setting [1]) stood at 42%; on human CB2 receptor, 19%.
In the case of `O=C(NCc1cc(C(F)(F)F)no1)c1cnc(OCC(F)(F)F)c(-c2ccc(Cl)cc2)c1` [Example 59, 5-(4-chloro-phenyl)-6-(2,2,2-trifluoro-ethoxy)-N-(3-trifluoromethyl-isoxazol-5-ylmethyl)-nicotinamide], the values for the inhibition at 10 µM on human CB1 receptor and on human CB2 receptor were 49% and -2%, respectively.
Consider `O=C(NCc1cc(C(F)(F)F)no1)c1ncc(OCC2CC2)c(-c2ccc(Cl)cc2)n1` [Example 62, 4-(4-chloro-phenyl)-5-cyclopropylmethoxy-pyrimidine-2-carboxylic acid (3-trifluoromethyl-isoxazol-5-ylmethyl)-amide], for which the inhibition at 10 µM was 44% at human CB1 receptor (setting [1]) and 24% at human CB2 receptor.
The matching figures for `CC(C)(C)c1nc(CNC(=O)c2ccc(OCC3CC3)c(-c3ccc(Cl)cc3)n2)cs1` [Example 63, 6-(4-chloro-phenyl)-5-cyclopropylmethoxy-pyridine-2-carboxylic acid (2-tert-butyl-thiazol-4-ylmethyl)-amide]: 36% and 38%.
For `O=C(NCc1cc(C(F)(F)F)on1)c1cnc(OCC2CC2)c(-c2ccc(Cl)cc2)c1` [Example 66, 5-(4-chloro-phenyl)-6-cyclopropylmethoxy-N-(5-trifluoromethyl-isoxazol-3-ylmethyl)-nicotinamide], in that order: 49% and 18%.
Take `C[C@H](Oc1cnc(C(=O)NCc2cc(C(F)(F)F)no2)nc1-c1ccc(Cl)cc1)C(F)(F)F` [Example 68, (S)-4-(4-chlorophenyl)-N-((3-(trifluoromethyl)isoxazol-5-yl)methyl)-5-(1,1,1-trifluoropropan-2-yloxy)pyrimidine-2-carboxamide]: the inhibition at 10 µM on human CB1 receptor (setting [1]) was 45%; on human CB2 receptor it was 3%.
As for `C[C@H](Oc1ncc(C(=O)NCc2ccccn2)nc1-c1ccc(Cl)cc1)C(F)(F)F` [Example 69, (S)-6-(4-chlorophenyl)-N-(pyridin-2-ylmethyl)-5-(1,1,1-trifluoropropan-2-yloxy)pyrazine-2-carboxamide], the inhibition at 10 µM on human CB1 receptor (setting [1]) is 34%; on human CB2 receptor it was 40%.
Take `COc1cc(CNC(=O)c2cc(-c3ccc(C)c(Cl)c3)c(OCC(F)(F)F)cn2)on1` [Example 73, 4-(3-chloro-4-methylphenyl)-N-((3-methoxyisoxazol-5-yl)methyl)-5-(2,2,2-trifluoroethoxy)picolinamide]: the inhibition at 10 µM worked out at 22% on human CB1 receptor and 45% on human CB2 receptor.
Consider `COc1cc(CNC(=O)c2cc(-c3ccc(C)c(C)c3)c(OCC(F)(F)F)cn2)on1` [Example 75, 4-(3,4-dimethylphenyl)-N-((3-methoxyisoxazol-5-yl)methyl)-5-(2,2,2-trifluoroethoxy)picolinamide], for which the values for the inhibition at 10 µM on human CB1 receptor (setting [1]) and on human CB2 receptor were 19% and 34%, respectively.
Consider `Cc1ccc(-c2cc(C(=O)NCc3nc(C(F)(F)F)no3)ncc2OCC(F)(F)F)cc1C` [Example 78, 4-(3,4-dimethylphenyl)-5-(2,2,2-trifluoroethoxy)-N-((3-(trifluoromethyl)-1,2,4-oxadiazol-5-yl)methyl)picolinamide], for which the results for the inhibition at 10 µM on human CB1 receptor (setting [1]) and at human CB2 receptor were 17% and 5%, respectively.
Consider `O=C(NCc1nc(C(F)(F)F)no1)c1cnc(OCC(F)(F)F)c(-c2ccc(Cl)c(F)c2)c1` [Example 82, 5-(4-chloro-3-fluorophenyl)-6-(2,2,2-trifluoroethoxy)-N-((3-(trifluoromethyl)-1,2,4-oxadiazol-5-yl)methyl)nicotinamide], for which the inhibition at 10 µM at human CB1 receptor (setting [1]) was 30%; at human CB2 receptor, 27%.
For `CCc1ccc(-c2cc(C(=O)NCc3nc(C(F)(F)F)no3)cnc2OCC(F)(F)F)cc1` [Example 83, 5-(4-ethylphenyl)-6-(2,2,2-trifluoroethoxy)-N-((3-(trifluoromethyl)-1,2,4-oxadiazol-5-yl)methyl)nicotinamide], in that order: 44% and -2%.
Take `O=C(NCc1nc(C(F)(F)F)no1)c1cnc(OCC(F)(F)F)c(-c2ccc(Cl)cc2F)c1` [Example 84, 5-(4-chloro-2-fluorophenyl)-6-(2,2,2-trifluoroethoxy)-N-((3-(trifluoromethyl)-1,2,4-oxadiazol-5-yl)methyl)nicotinamide]: the inhibition at 10 µM at human CB1 receptor (setting [1]) was 49%; at human CB2 receptor, 21%.
